Reference: patent publication US11306078B2, “Piperidine CXCR7 receptor modulators” (IDORSIA PHARMACEUTICALS LTD., priority 2016, dated 2022)

target: human chemokine receptor CXCR7 (Homo sapiens (Human), UniProt P25106); test: Tango CXCR7-bla U2OS beta-arrestin recruitment assay (beta-lactamase reporter, FRET), antagonism of CXCL12/SDF1-α; assay type: cell-based; conditions: antagonistic effect on CXCR7; Tango CXCR7-bla U2OS cells, CXCL12/SDF1-α at its EC80;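 note: compounds preincubated 15 min before CXCL12 addition, then 22 h at 37 °C, FRET emission ratio read with CCF4-AM substrate after 2 h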
Sequence (P25106 whole entry): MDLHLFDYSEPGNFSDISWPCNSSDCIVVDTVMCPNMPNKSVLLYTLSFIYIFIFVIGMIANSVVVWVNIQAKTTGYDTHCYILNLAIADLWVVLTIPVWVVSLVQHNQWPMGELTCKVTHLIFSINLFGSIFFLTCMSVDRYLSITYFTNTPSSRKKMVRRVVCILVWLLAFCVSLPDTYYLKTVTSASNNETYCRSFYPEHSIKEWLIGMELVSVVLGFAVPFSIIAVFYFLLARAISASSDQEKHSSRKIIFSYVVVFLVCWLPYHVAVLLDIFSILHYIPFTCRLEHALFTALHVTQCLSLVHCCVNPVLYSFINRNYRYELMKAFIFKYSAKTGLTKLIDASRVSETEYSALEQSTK

Compound	IC50
O=C(N[C@@H]1CCN(C2CCCCC2)C[C@H]1C(=O)NC1CCCC1)c1cc(-c2ccc(F)cc2F)on1 (racemic) [Example 1.003, rac-(3R*,4R*)-1-Cyclohexyl-4-{[5-(2,4-difluoro-phenyl)-isoxazole-3-carbonyl]-amino}-piperidine-3-carboxylic acid cyclopentylamide]	564 nM
CN(CCO)C(=O)[C@@H]1CN(C2CCCCC2)CC[C@H]1NC(=O)c1cc(-c2ccc(F)cc2F)on1 (racemic) [Example 1.005, rac-(3R*,4R*)-1-Cyclohexyl-4-{[5-(2,4-difluoro-phenyl)-isoxazole-3-carbonyl]-amino}-piperidine-3-carboxylic acid (2-hydroxy-ethyl)-methyl-amide]	198 nM
COCCNC(=O)[C@@H]1CN(C2CCCCC2)CC[C@H]1NC(=O)c1cc(-c2ccc(F)cc2F)on1 (racemic) [Example 1.006, rac-(3R*,4R*)-1-Cyclohexyl-4-{[5-(2,4-difluoro-phenyl)-isoxazole-3-carbonyl]-amino}-piperidine-3-carboxylic acid (2-methoxy-ethyl)-amide]	414 nM
CC(C)CNC(=O)[C@@H]1CN(C2CCCCC2)CC[C@H]1NC(=O)c1cc(-c2ccc(F)cc2F)on1 (racemic) [Example 1.007, rac-(3R*,4R*)-1-Cyclohexyl-4-{[5-(2,4-difluoro-phenyl)-isoxazole-3-carbonyl]-amino}-piperidine-3-carboxylic acid isobutyl-amide]	780 nM
CC(C)NC(=O)[C@@H]1CN(C2CCCCC2)CC[C@H]1NC(=O)c1cc(-c2ccc(F)cc2F)on1 (racemic) [Example 1.008, rac-(3R*,4R*)-1-Cyclohexyl-4-{[5-(2,4-difluoro-phenyl)-isoxazole-3-carbonyl]-amino}-piperidine-3-carboxylic acid isopropylamide]	394 nM
O=C(N[C@@H]1CCN(C2CCCCC2)C[C@H]1C(=O)NCCF)c1cc(-c2ccc(F)cc2F)on1 (racemic) [Example 1.011, rac-(3R*,4R*)-1-Cyclohexyl-4-{[5-(2,4-difluoro-phenyl)-isoxazole-3-carbonyl]-amino}-piperidine-3-carboxylic acid (2-fluoro-ethyl)-amide]	282 nM
CCNC(=O)[C@@H]1CN(C2CCCCC2)CC[C@H]1NC(=O)c1cc(-c2ccc(F)cc2F)on1 (racemic) [Example 1.012, rac-(3R*,4R*)-1-Cyclohexyl-4-{[5-(2,4-difluoro-phenyl)-isoxazole-3-carbonyl]-amino}-piperidine-3-carboxylic acid ethylamide]	58 nM
CN(C(=O)[C@@H]1CN(C2CCCCC2)CC[C@H]1NC(=O)c1cc(-c2ccc(F)cc2F)on1)C1CC1 (racemic) [Example 1.013, rac-(3R*,4R*)-1-Cyclohexyl-4-{[5-(2,4-difluoro-phenyl)-isoxazole-3-carbonyl]-amino}-piperidine-3-carboxylic acid cyclopropyl-methyl-amide]	238 nM
NC(=O)CNC(=O)[C@@H]1CN(C2CCCCC2)CC[C@H]1NC(=O)c1cc(-c2ccc(F)cc2F)on1 (racemic) [Example 1.014, rac-(3R*,4R*)-1-Cyclohexyl-4-{[5-(2,4-difluoro-phenyl)-isoxazole-3-carbonyl]-amino}-piperidine-3-carboxylic acid carbamoylmethyl-amide]	289 nM
O=C(N[C@@H]1CCN(C2CCCCC2)C[C@H]1C(=O)N1CCOCC1)c1cc(-c2ccc(F)cc2F)on1 (racemic) [Example 1.016, rac-5-(2,4-Difluoro-phenyl)-isoxazole-3-carboxylic acid [(3R*,4R*)-1-cyclohexyl-3-(morpholine-4-carbonyl)-piperidin-4-yl]-amide]	275 nM
CC(C)N(C)C(=O)[C@@H]1CN(C2CCCCC2)CC[C@H]1NC(=O)c1cc(-c2ccc(F)cc2F)on1 (racemic) [Example 1.017, rac-(3R*,4R*)-1-Cyclohexyl-4-{[5-(2,4-difluoro-phenyl)-isoxazole-3-carbonyl]-amino}-piperidine-3-carboxylic acid isopropyl-methyl-amide]	489 nM
CN(C)CCN(C)C(=O)[C@@H]1CN(C2CCCCC2)CC[C@H]1NC(=O)c1cc(-c2ccc(F)cc2F)on1 (racemic) [Example 1.018, rac-(3R*,4R*)-1-Cyclohexyl-4-{[5-(2,4-difluoro-phenyl)-isoxazole-3-carbonyl]-amino}-piperidine-3-carboxylic acid (2-dimethylamino-ethyl)-methyl-amide]	317 nM
CCOCCN(C)C(=O)[C@@H]1CN(C2CCCCC2)CC[C@H]1NC(=O)c1cc(-c2ccc(F)cc2F)on1 (racemic) [Example 1.019, rac-(3R*,4R*)-1-Cyclohexyl-4-{[5-(2,4-difluoro-phenyl)-isoxazole-3-carbonyl]-amino}-piperidine-3-carboxylic acid (2-ethoxy-ethyl)-methyl-amide]	145 nM
Cc1cc(CNC(=O)[C@@H]2CN(C3CCCCC3)CC[C@H]2NC(=O)c2cc(-c3ccc(F)cc3F)on2)no1 (racemic) [Example 1.022, rac-(3R*,4R*)-1-Cyclohexyl-4-{[5-(2,4-difluoro-phenyl)-isoxazole-3-carbonyl]-amino}-piperidine-3-carboxylic acid (5-methyl-isoxazol-3-ylmethyl)-amide]	198 nM
CN(C)CCNC(=O)[C@@H]1CN(C2CCCCC2)CC[C@H]1NC(=O)c1cc(-c2ccc(F)cc2F)on1 (racemic) [Example 1.023, rac-(3R*,4R*)-1-Cyclohexyl-4-{[5-(2,4-difluoro-phenyl)-isoxazole-3-carbonyl]-amino}-piperidine-3-carboxylic acid (2-dimethylamino-ethyl)-amide]	743 nM
O=C(N[C@@H]1CCN(C2CCCCC2)C[C@H]1C(=O)NCC(F)F)c1cc(-c2ccc(F)cc2F)on1 (racemic) [Example 1.026, rac-(3R*,4R*)-1-Cyclohexyl-4-{[5-(2,4-difluoro-phenyl)-isoxazole-3-carbonyl]-amino}-piperidine-3-carboxylic acid (2,2-difluoro-ethyl)-amide]	627 nM
COCCCN(C)C(=O)[C@@H]1CN(C2CCCCC2)CC[C@H]1NC(=O)c1cc(-c2ccc(F)cc2F)on1 (racemic) [Example 1.027, rac-(3R*,4R*)-1-Cyclohexyl-4-{[5-(2,4-difluoro-phenyl)-isoxazole-3-carbonyl]-amino}-piperidine-3-carboxylic acid (3-methoxy-propyl)-methyl-amide]	117 nM
Cc1cc(CNC(=O)[C@@H]2CN(C3CCCCC3)CC[C@H]2NC(=O)c2cc(-c3ccc(F)cc3F)on2)on1 (racemic) [Example 1.029, rac-(3R*,4R*)-1-Cyclohexyl-4-{[5-(2,4-difluoro-phenyl)-isoxazole-3-carbonyl]-amino}-piperidine-3-carboxylic acid (3-methyl-isoxazol-5-ylmethyl)-amide]	315 nM
Cc1nc(CNC(=O)[C@@H]2CN(C3CCCCC3)CC[C@H]2NC(=O)c2cc(-c3ccc(F)cc3F)on2)cs1 (racemic) [Example 1.031, rac-(3R*,4R*)-1-Cyclohexyl-4-{[5-(2,4-difluoro-phenyl)-isoxazole-3-carbonyl]-amino}-piperidine-3-carboxylic acid (2-methyl-thiazol-4-ylmethyl)-amide]	855 nM
